Reference: ChEMBL document CHEMBL4304762, “De Novo Design of Boron-Based Peptidomimetics as Potent Inhibitors of Human ClpP in the Presence of Human ClpX” (J Med Chem, 2019)

Legend:
[1] = Inhibition of human ClpP expressed in Escherichia coli SG1146 cells/His6-tagged TEV-fused human ClpX expressed in Escherichia coli B21 Gold DE3 cells complex formation using FITC-casein as substrate incubated for 60 mins and measured at 20 secs time interval for 90 mins by fluorescence assay
[2] = biological target: ATP-dependent Clp protease proteolytic subunit, mitochondrial (Homo sapiens, UniProt Q16740); test: Inhibition of human ClpP expressed in Escherichia coli SG1146 cells using N-acetyl-Trp-Leu-Ala-AMC as substrate incubated for 1 hr and measured at 20 secs time interval for 90 mins by fluorescence assay
Chain of ATP-dependent Clp protease proteolytic subunit, mitochondrial (Q16740 whole entry): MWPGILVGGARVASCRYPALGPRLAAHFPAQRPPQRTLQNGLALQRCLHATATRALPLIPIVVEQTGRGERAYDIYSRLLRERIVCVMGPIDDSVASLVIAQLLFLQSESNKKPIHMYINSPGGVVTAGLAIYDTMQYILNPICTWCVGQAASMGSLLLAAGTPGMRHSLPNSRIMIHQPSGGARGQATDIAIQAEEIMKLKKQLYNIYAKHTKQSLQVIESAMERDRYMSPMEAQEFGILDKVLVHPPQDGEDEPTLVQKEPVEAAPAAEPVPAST

**Q.** With `CC(C)C[C@H](NC(=O)[C@H](CC(C)C)NC(=O)c1ccc(F)c([N+](=O)[O-])c1)B(O)O` as the molecule, how does the IC50 [1] read?
**A.** 1000 nM

**Q.** Which IC50 [1] does the source give for `COc1ccc(C(=O)N[C@@H](CC(C)C)C(=O)N[C@@H](CC(C)C)B(O)O)c(Cl)c1` here?
**A.** 800 nM

**Q.** Which IC50 [2] does the source give for `CC(C)CC(NC(=O)C(CC(C)C)NC(=O)C1(c2ccccc2)CC1)B(O)O` (stereo unspecified) here?
**A.** Not Active

**Q.** Which IC50 [1] does the source give for `CC(C)C[C@H](NC(=O)[C@H](CC(C)C)NC(=O)c1ccccc1-c1ccccc1)B(O)O` here?
**A.** 900 nM

**Q.** With `COc1ccc(C(=O)NC(CC(C)C)C(=O)NC(Cc2ccccc2)B(O)O)c(Cl)c1` (stereo unspecified) as the molecule, how does the IC50 [2] read?
**A.** Not Active

**Q.** What about the IC50 ([2]; read-out: IC50) of the same molecule?
**A.** 118000 nM
